The results in this text go back to US5447957A, “Anti-inflammatory compounds” (SmithKline Beecham Corp., priority 1994, dated 1995).

Where two headings read alike, the source gives them in different places.

The test system of one series is CoA-IT. Description: Assay (b): CoA-IT activity in U937 cell microsomes. The format is biochemical, human. To be noted: for inhibition of CoA-IT activity in the microsomal CoA-IT assay: generally at 50 μM or less. An excerpt:
Assay (b): CoA-IT Activity
The following is a method to measure CoA-IT activity and the effects of compounds on CoA-IT activity. The assay is based upon mixing cellular material containing CoA-IT activity with a stable lyso phospholipid such as […] and measuring the production of phospholipid product such as […] occurring in the absence of added CoA or CoA-fatty acids.
Any inflammatory cell that contains high levels of CoA-IT activity can be used, such as neutrophils, macrophages or cell lines such as U937 cells. […] Cells were grown without differentiation (basal state) by any agent, such as dimethyl sulfoxide. As used herein, "inflammatory cells" include, but are not limited to neutrophils, macrophages, monocytes, lymphocytes, eosinophils, basophils, and mast cells.
Microsomes were prepared using standard techniques. In this case, cells were washed with a buffer of 250 mM sucrose, 10 mM Tris, 1 mM EGTA, 1 mM MgCl2, pH 7.4 and ruptured by N2 cavitation (750 psi, 10 minutes). The ruptured cells were centrifuged 1000× g, 5 minutes. The resulting supernatant was centrifuged at 20,000×g,~20 minutes. Microsomes were prepared from this supernatant by centrifugation at 100,000× g, 60 minutes. The resulting pellet was washed once with assay buffer (150 mM NaCl, 10 mM Na2 KPO4, 1 mM EGTA, pH 7.4), recentrifuged and the pellet resuspended in assay buffer (4-20 mg protein/ml) and was stored at -80° C. until assayed.
CoA-IT activity was measured in 1.5 ml centrifuge tubes in a total volume of 100 ul. Microsomes were diluted in assay buffer to the desired protein concentration (6-20 ug/tube). The reaction was initiated by addition of [3H] 1-alkyl-2-lyso-sn-glycero-3-phosphocholine (GPC)(~0.1 uCi/tube) and 1 μM final cold 1-alkyl-2-lyso-GPC in assay buffer with 0.25 mg/ml fatty acid-poor bovine serumalbumin (BSA) (Calbiochem, La Jolla, Calif.). [3H]1-alkyl-2-lyso-GPC, approximately 50 Ci/mmol, was from NEN-Dupont (Boston, Mass.) and cold 1-alkyl-2-lyso-GPC was from Biomol (Plymouth Meeting, Penn.). Microsomes were pretreated with desired agents for the desired time (10 minutes) before the addition of [3H]1-alkyl-2-lyso-GPC. The reaction was run for the desired time (10 minutes) at 37° C. The reaction was stopped and the lipids extracted by addition of 100 ul of chloroform:methanol (1:2, v/v) followed by 100 ul of chloroform and 100 ul of 1M KCI. The samples were vortexed and centrifuged at high speed in a microfuge for 2-3 minutes. An aliquot of the chloroform-extracted materials were separated, usually by TLC in chloroform/methanol/acetic acid/water (50:25:8:4, v/v), visualized by radioscanning (Bioscan) and the product, [3H] 1-alkyl-2-acyl-GPC, was scraped and quantified by liquid scintillation spectroscopy. […] Other methods can be used to separate substrate from product, including but not limited to column chromatography, affinity chromatography and post reaction derivitization.

A further series deals with human monocytes. Put plainly: Assay (f): stimulated eicosanoid (PGE2, LTC4) release by human monocytes. Format: cell-based. The conditions noted are these: Monocyte, 0.25 h, A23187 1 μM, 15 min. As for the experimental part:
Assay (f): Measurement of stimulated eicosanoid release by human monocytes.
Leukocyte-rich leukopaks obtained from Biological Specialties (Lansdale, Pa.) were collected from male volunteers who were not taking anti-inflammatory drugs. Leukopaks were centrifuged (90× g for 15 min) twice to remove the platelet-rich plasma. The cell pellet was washed by centrifugation and resuspended in HBSS without Ca^2+ or Mg^2+. Histopaque 1077 was layered under the cell suspension and centrifuged at 400× g for 30 min to obtain the buffy coat. The interfacial buffy coat, containing monocytes and lymphocytes, was removed and saved. The buffy coat was washed twice with HBSS without Ca^2+ or Mg^2+ by centrifugation. The cell pellet (4-6×10^8 cells/30 mls) was resuspended in iso-osmotic media (RPMI-1640, 10% heat inactivated fetal bovine serum (FBS), 0.2 mM L-glutamine, 2.5 mM HEPES) and layered over an equal volume of 46% Percol mixture (10X PBS/Percol; 9.25/0.75) and 54% iso-osmotic media and centrifuged for 30 min at 1000× g (Marshall and Roshak, Biochem. Cell Biol. 71: 331-339, 1993). The monocyte population located at the interface of the Percoll gradient was removed and washed twice in HBSS without Ca^2+ or Mg^2+.
Monocytes (5×10^6 /ml) were incubated as a suspension in serum-free RPMI- 1640 medium containing the vehicle DMSO (<1%) or drug for 30 min at […] after which vehicle or stimuli was added for the indicated time. The stimulating agent is solubilized in DMSO and appropriate vehicle controls were included in all experiments. The amount of stimuli was chosen from the linear portion of a concentration versus product curve usually representing 60-80% maximal stimulation over the indicated incubation time at 37° C. (A23187, 1 μM,(15 min). The reaction was terminated by reduction of pH through addition of citric acid and centrifugation (10 min, 400× g, 4° C.). Cell viability was monitored before and after experiments using trypan blue exclusion. The cell-free media was decanted and stored at -70° C. until analyzed. Prostaglandin E2 and LTC4 were directly measured in cell-free media using enzyme immunoassay (EIA) kits purchased from Caymen Chemical Co. (Ann Arbor, Mich.). Sample or standard dilutions were made with appropriate media and analyzed in triplicate. Results were obtained by extrapolation from a standard curve prepared in the media and expressed as pg or ng/ml of sample.

The subject of series [1] is Arachidonic acid induced ear inflammation. Put plainly: Assay (h): Arachidonic acid induced ear inflammation (ear edema and MPO). The format is in vivo, mouse. To be noted: topical; doses dexamethasone 0.2, scalaradial 0.1, WY 50,295 0.3 (unit not given). As for the experimental part:
(§1) Male Balb/c inbred mice were obtained from Charle River Breeding Laboratories (Kingston, N.Y.). Within a single experiment mice (22-25 g) were age-matched. These in vivo experiments typically involved use of 5-6 animals/group.
On the day of the assay, partially thawed ear tissues were minced and then homogenized (10% w/v) with a Tissumizer homogenizer (Tekmar Co.) in 50 mM phosphate buffer (pH 6) containing 0.5% HTAB. The tissue homogenates were taken through three cycles of freeze-thaw, followed by brief sonication (10 sec). The method of Bradley et al. was used with modifications as described. […] Supernatant MPO activity was quantified kinetically (change in absorbance measured over 3 min, sampled at 15-sec intervals) using a Beckman DU-7 spectrophotometer and a Kinetics Analysis package (Beckman Instruments, Inc.). One unit of MPO activity is defined as that degrading one micromole of peroxide per minute at 25° C.
Arachidonic acid is dissolved in acetone (1 mg/ear) to the left ear of BALB/c male mice. The thickness of both ears was measured with a constant pressure thickness guage 1 hour after treatment and the data expressed as the change in thickness between treated and untreated ears. Test compounds or vehicle are given at the time of AA applciation. The inflammatory cell infiltration is measured by MPO activity as described above in the TPA ear edema assay. After the edema measurements are made, the inflamed ears are removed and assayed for MPO activity.

The subject of series [2] is TPA-induced Mouse Ear Inflammation. Put plainly: Assay (g): TPA-induced Mouse Ear Inflammation (ear edema and MPO). The format is in vivo. To be noted: topical; doses dexamethasone 0.2, scalaradial 0.1, WY 50,295 0.3 (unit not given).
Description: The ability of compounds that inhibit CoA-IT and/or PLA2 to affect in vivo inflammatory responses may be assessed. Inflammatory responses are induced in the mouse ear by the topical application of a pro-inflammatory agent, such as 12-0-tetradecanoylphorbol 13-acetate (assay g). This produces an edematous response, as measured by increases in ear thickness, as well as increased inflammatory cellular infiltrate, as measured by increases in myeloperoxidase activity (as described in the methods). To further validate the mechanism of action inflammation induced by the direct adminstration of arachidonic acid can be used. In this case compounds altering arachidonic acid mobilization or liberation should be with our effect.
as §1
TPA (12-0-tetradecanoylphorbol 13-acetate) (Sigma Chemical Company) in acetone ([…]) was applied to the inner and outer surfaces of the left ear of BALB/c male mice. The thickness of both ears was then measured with a dial micrometer (Mitutoyo, Japan) at both 2 and 4 hours after treatment, and the data expressed as the change in thickness (10^-3 cm) between treated and untreated ears. […] After measuring the edema, the inflammed left ears were removed and stored at -70° C. until they were assayed for MPO (myeloperoxidase) activity where appropriate.
On the day of the assay, partially thawed ear tissues were minced and then homogenized (10% w/v) with a Tissumizer homogenizer (Tekmar Co.) in 50 mM phosphate buffer (pH 6) containing 0.5% HTAB. The tissue homogenates were taken through three cycles of freeze-thaw, followed by brief sonication (10 sec). The method of Bradley et al. was used with modifications as described. The appearance of a colored product from the MPO-dependent reaction of o-dianisidine (0.167 mg/ml; Sigma) and hydrogen peroxide (0.0005%; Sigma) was measured spectrophotometrically at 460 nm. Supernatant MPO activity was quantified kinetically (change in absorbance measured over 3 min, sampled at 15-sec intervals) using a Beckman DU-7 spectrophotometer and a Kinetics Analysis package (Beckman Instruments, Inc.). One unit of MPO activity is defined as that degrading one micromole of peroxide per minute at 25° C.
Statistical analysis was done using Student's "t" test. The ED50 are values which cause a 50% inhibition of the inflammatory response and are calculated by regression analysis of the dose response data.

For the molecule `CCCCCCCCNC(=O)Nc1cc(C(F)(F)F)ccc1Oc1ccccc1C(=O)O` [2-[2-[3-(Octyl)ureido]-4-trifluoromethylphenoxy]benzoic acid], the “inhibition of CoA-IT activity in the microsomal CoA-IT assay” value (“inhibition of CoA-IT activity” for short) with CoA-IT is listed as “inhibit CoA-IT activity”.

Consider `O=S1(=O)CCn2c1nc(-c1ccc(F)cc1)c2-c1ccncc1` [6-(4'-Fluorophenyl)-5-(4-pyridyl)2,3-dihydroimidzo-[2,1-b]thiazole-dioxide], for which the “effect on CoA-IT activity” value in the series with CoA-IT (at concentrations up to 100 μM) is “no effect”.

`Fc1ccc(-c2nc3n(c2-c2ccncc2)CCS3)cc1` [6-(4'-Fluorophenyl)-5-(4-pyridyl)-2,3-dihydroimidzo-[2,1-b]thiazole]: the “effect on CoA-IT activity” value in the series on CoA-IT (at concentrations up to 100 μM) is given as “no effect”.

As to `Cc1cc(C(C)(C)C)c(O)c(C(C)(C)C)c1` [BHT], in the series on CoA-IT (at concentrations up to 100 μM), the “effect on CoA-IT activity” value is reported as “no effect”.

Regarding `CN(C)CCC=C1c2ccccc2COc2ccccc21` [Doxepine], the “effect on CoA-IT activity” value in the series on CoA-IT (at concentrations up to 100 μM) is listed as “did not inhibit”.

In the case of `O=C(Nc1ccc(Br)cc1)Nc1cc(C(F)(F)F)ccc1Oc1ccccc1C(=O)O` [Example 1, 2-[2-[3-(4-Bromophenyl)ureido]-4-(trifluoromethyl)phenoxy]benzoic acid], the figures for the IC50 in the series on human monocytes (read-out: IC50 for LTC4 release) and in the series with human monocytes (read-out: IC50 of PGE2 release) were 300 nM and more than 3000 nM, respectively. The “inhibition of CoA-IT activity” value in the series with CoA-IT is given as “inhibit CoA-IT activity”.

For `CC(C)(C)CC(C)(C)c1ccc(Oc2ccc(C(F)(F)F)cc2NC(=O)Nc2cc(C(F)(F)F)cc(C(F)(F)F)c2)c(C(=O)O)c1` [Example 4, 2-[2-[3-[3,5-Bis (trifluoromethyl)phenyl]ureido]-4-trifluoromethylphenoxy]-5-(1,1,3,3-tetramethylbutyl)benzoic acid], the “inhibition of CoA-IT activity” value with CoA-IT is recorded as “inhibit CoA-IT activity”.

Regarding `CCC(C)(C)c1ccc(Oc2ccc(C(F)(F)F)cc2NC(=O)Nc2cc(C(F)(F)F)cc(C(F)(F)F)c2)c(C(=O)O)c1` [Example 5, 2-[2-[3-[3,5-Bis (trifluoromethyl)phenyl]ureido]-4-trifluoromethylphenoxy]-5-(1,1,-dimethylpropyl)benzoic acid], the “inhibition of CoA-IT activity” value in the series on CoA-IT is “inhibit CoA-IT activity”.

`COC(=O)c1ccccc1Oc1ccc(C(F)(F)F)cc1NC(=O)Nc1cc(C(F)(F)F)cc(C(F)(F)F)c1` [Example 8, Methyl 2-[2-[3-[3,5-Bis(trifluoromethyl)phenyl]ureido]-4-trifluoromethylphenoxy]benzoate]: the “inhibition of CoA-IT activity” value in the series with CoA-IT is listed as “inhibit CoA-IT activity”.

Consider `C[C@H](C(=O)O)c1ccc2cc(OCc3ccc4ccccc4n3)ccc2c1` [WY 50,295], for which, in series [1], the “AA % change in edema” value is reported as -50% and the “change in MPO for AA” value was -90. The “TPA % change in edema” value in series [2] is recorded as -18%.

For the molecule `COc1cccc2c1cc([N+](=O)[O-])c1c(C(=O)O)cc3c(c12)OCO3` [aristolochic acid], the “effect on CoA-IT activity” value with CoA-IT (at concentrations up to 500 μM) was “no effect”.

In the case of `C[C@@H]1C[C@H]2[C@@H]3CCC4=CC(=O)C=C[C@]4(C)[C@@]3(F)[C@@H](O)C[C@]2(C)[C@@]1(O)C(=O)CO` [dexamethasone], in series [1], the “AA % change in edema” value is -10% and the “change in MPO for AA” value amounted to 0. In series [2], the “TPA % change in edema” value is reported as -50% and the “change in MPO for TPA model” value was -54.

On to `COc1ccc2c(c1)c(CC(=O)O)c(C)n2C(=O)c1ccc(Cl)cc1` [indomethicin], for which the “effect on CoA-IT activity” value in the series with CoA-IT (at concentrations up to 100 μM) is reported as “no effect”.

Regarding `COc1ccc2cc([C@H](C)C(=O)O)ccc2c1` [naproxen], in the series with CoA-IT (at concentrations up to 100 μM), the “effect on CoA-IT activity” value was “no effect”.

In the case of `CCN(CC)CCCC(C)Nc1c2ccc(Cl)cc2nc2ccc(OC)cc12` (centres unmarked) [quinacrine], the “effect on CoA-IT activity” value in the series with CoA-IT (at concentrations up to 500 μM) is “no effect”.

On to `CC(=O)O[C@H]1C[C@@H]2[C@@]3(C)CCCC(C)(C)[C@@H]3CC[C@@]2(C)[C@@H]2CC=C(C=O)[C@H](C=O)[C@@]12C` [scalaradial], for which, in series [1], the “AA % change in edema” value is reported as -11%.
